Holding throughout (type): biochemical
One experiment addresses T1, cGMP-inhibited cAMP PDE (Oryctolagus cuniculus, UniProt G1ST54).
T1 construct: The PDE enzymes are isolated from rabbit platelets and rat kidney; from tissue; host or cells: rabbit platelets
T1 sequence (G1ST54 1-1128): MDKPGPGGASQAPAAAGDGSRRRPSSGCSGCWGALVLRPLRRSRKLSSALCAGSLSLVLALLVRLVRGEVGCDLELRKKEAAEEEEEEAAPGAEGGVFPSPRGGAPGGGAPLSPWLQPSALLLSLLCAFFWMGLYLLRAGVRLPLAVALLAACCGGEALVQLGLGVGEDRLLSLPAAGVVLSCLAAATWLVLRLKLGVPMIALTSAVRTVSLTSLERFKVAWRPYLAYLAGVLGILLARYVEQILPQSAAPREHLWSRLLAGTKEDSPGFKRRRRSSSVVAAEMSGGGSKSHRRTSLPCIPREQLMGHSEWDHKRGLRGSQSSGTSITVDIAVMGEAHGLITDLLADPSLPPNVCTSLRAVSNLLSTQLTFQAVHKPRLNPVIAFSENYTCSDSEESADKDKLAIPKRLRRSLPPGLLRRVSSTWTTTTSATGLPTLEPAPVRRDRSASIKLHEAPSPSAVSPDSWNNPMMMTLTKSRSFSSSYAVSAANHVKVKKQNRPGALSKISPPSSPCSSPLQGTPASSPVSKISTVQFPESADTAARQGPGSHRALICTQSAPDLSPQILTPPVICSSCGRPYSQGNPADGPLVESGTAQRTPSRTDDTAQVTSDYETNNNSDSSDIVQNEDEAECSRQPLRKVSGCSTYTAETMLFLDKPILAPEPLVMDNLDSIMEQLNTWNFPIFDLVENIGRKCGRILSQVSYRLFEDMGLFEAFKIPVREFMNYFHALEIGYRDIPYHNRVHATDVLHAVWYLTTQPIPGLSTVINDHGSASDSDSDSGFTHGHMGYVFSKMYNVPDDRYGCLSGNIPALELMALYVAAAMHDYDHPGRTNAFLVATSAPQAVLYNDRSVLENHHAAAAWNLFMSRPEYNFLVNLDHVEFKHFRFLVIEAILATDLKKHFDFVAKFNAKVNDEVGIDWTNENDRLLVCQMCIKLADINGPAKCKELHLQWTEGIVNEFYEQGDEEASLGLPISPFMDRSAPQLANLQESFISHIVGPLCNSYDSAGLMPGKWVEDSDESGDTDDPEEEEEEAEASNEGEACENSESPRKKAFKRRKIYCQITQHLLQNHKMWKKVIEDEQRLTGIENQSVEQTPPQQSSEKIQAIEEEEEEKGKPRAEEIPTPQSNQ
Put plainly: Phosphodiesterase activity: inhibition of cGMP-inhibited cAMP PDE from rabbit platelets. The following applies: in vitro. On the procedure:
(§1) Compound affinities for cGMP and cAMP PDEs are assessed by determination of their IC50 value (the concentration of inhibitor required for 50% inhibition of enzyme activity). The PDE enzymes are isolated from rabbit platelets and rat kidney, essentially by the method of W. J. Thompson et al. (Biochem., 1971, 10, 311). The calcium/calmodulin (Ca/CAM)-independentcGMP PDE and the cGMP-inhibited cAMP PDE enzymes are obtained from rabbit platelets whilst, of the four major PDE enzymes of the rat kidney, the Ca/CAM-dependent cGMP PDE (fraction I) is isolated. Assays are performed using a modification of the "batch" method of W. J. Thompson and M. M. Appleman (Biochem., 1979, 18, 5228).

Experiment [1] relates to Ca/CAM-independent cGMP PDE. Description: Phosphodiesterase activity: inhibition of calcium/calmodulin (Ca/CAM)-independent cGMP PDE from rabbit platelets. The following applies: between Ca/CAM-independent cGMP PDE and cGMP-inhibited cAMP PDE (IC50 cAMP / IC50 cGMP). On the procedure: as §1
The target of experiment [2] is T2, Ca/CAM-independent cGMP PDE (Oryctolagus cuniculus, UniProt G1SX67).
T2 construct: The PDE enzymes are isolated from rabbit platelets and rat kidney; from tissue; host or cells: rabbit platelets
The experiment is described as above. The following applies: in vitro; Ca/CAM-independent cGMP PDE from rabbit platelets. On the procedure: as §1

Molecules are shown by their SMILES.

Usually IC50 stands for the point on the concentration scale where inhibition reaches its midpoint. As for `CCCc1nn(C)c2c(=O)[nH]c(-c3cc(C(=O)CN4CCN(C(C)=O)CC4)ccc3OCC)nc12` [Example 3, 5-[5-(4-acetyl-1-piperazinyl)acetyl-2-ethoxyphenyl]-1-methyl-3-n-propyl-1,6-dihydro-7H-pyrazolo[4,3-d]pyrimidin-7-one], the results for the IC50 (on cGMP-inhibited cAMP PDE; in experiment [2]) were 86 µM and 2.2 nM, respectively. Besides, the “SELECTIVITY RATIO” value in experiment [1] was 39,090.

In the case of `CCCc1nn(C)c2c(=O)[nH]c(-c3cc(C(=O)CN4CCOCC4)ccc3OCC)nc12` [Example 4, 5-(2-ethoxy-5-morpholinoacetylphenyl)-1-methyl-3-n-propyl-1,6dihydro-7H-pyrazolo[4,3-d]pyrimidin-7-one], the IC50 worked out at 63 µM against cGMP-inhibited cAMP PDE and 1.8 nM in experiment [2]. Besides, the “SELECTIVITY RATIO” value in experiment [1] is reported as 35,000.

For `CCCc1nn(C)c2c(=O)[nH]c(-c3cc(C(O)CN4CCOCC4)ccc3OCC)nc12` (centres unmarked) [Example 11], the results for the IC50 (on cGMP-inhibited cAMP PDE; in experiment [2]) were 57 µM and 4.9 nM, respectively. In experiment [1], the “SELECTIVITY RATIO” value was 11,632.

Consider `CCCOc1ccc(C(=O)CN2CCOCC2)cc1-c1nc2c(CCC)nn(C)c2c(=O)[nH]1` [Example 14, 1-Methyl-5-(5-morpholinoacetyl-2-n-propoxyphenyl)-3-n-propyl-1,6-dihydro-7H-pyrazolo[4,3-d]pyrimidin-7-one], for which the IC50 on cGMP-inhibited cAMP PDE amounted to 57 µM; in experiment [2], 1 nM. Besides, the “SELECTIVITY RATIO” value in experiment [1] is 57,000.

Turning to `CCCOc1ccc(C(=O)CN2CCN(C)CC2)cc1-c1nc2c(CCC)nn(C)c2c(=O)[nH]1` [Example 15, 1-Methyl-5-[5-(4-methyl-1-piperazinylacetyl)-2n-propoxyphenyl]-3-n-propyl-1,6-dihydro-7H-pyrazolo [4,3-d]pyrimidin-7-one], the results for the IC50 (against cGMP-inhibited cAMP PDE; in experiment [2]) were 75 µM and 3.4 nM, respectively. For the same compound, in experiment [1], the “SELECTIVITY RATIO” value is recorded as 22,058.

Consider `CCCOc1ccc(C(O)CN2CCOCC2)cc1-c1nc2c(CCC)nn(C)c2c(=O)[nH]1` (centres unmarked) [Example 16, 5-[5-(1-Hyroxy-2-morpholinoethyl)-2-n-propoxyphenyl]-1-methyl-3-n-propyl-1,6-dihydro-7H-pyrazolo[4,3-d]pyrimidin-7-one], for which the IC50 on cGMP-inhibited cAMP PDE amounted to 53 µM; in experiment [2], 3.7 nM. The “SELECTIVITY RATIO” value in experiment [1] is reported as 14,324.

As to `CCCOc1ccc(/C=C/C(=O)O)cc1-c1nc2c(CCC)nn(C)c2c(=O)[nH]1` [Example 20, (E)-3-(1-Methyl-7-oxo-3-n-propyl-1,6-dihydro-7H-pyrazolo[4,3-d]-pyrimidin-5-yl)-4-n-propoxycinnamic acid], the figures for the IC50 (on cGMP-inhibited cAMP PDE; in experiment [2]) were 59 µM and 3.7 nM, respectively. Also, the “SELECTIVITY RATIO” value in experiment [1] is recorded as 15,945.

As for `CCCc1nn(C)c2c(=O)[nH]c(-c3cc(/C=C/C(=O)N(C)C)ccc3OCC)nc12` [Example 25, (E)-4-Ethoxy-3(1-methyl-3-n-propyl-1,6-dihydro-7H-pyrazolo[4,3-d]-pyrimidin-5-yl)cinnamic acid dimethylamide], the results for the IC50 (against cGMP-inhibited cAMP PDE; in experiment [2]) were 84 µM and 3.4 nM, respectively. Also, the “SELECTIVITY RATIO” value in experiment [1] is recorded as 24,705.

Turning to `CCCc1nn(C)c2c(=O)[nH]c(-c3cc(C(=O)O)ccc3OCC)nc12` [Example 29, 4-Ethoxy-3-(-1-methyl-3-n-propyl-1,6-dihydro-7H-pyrazolo[4,3-d]-pyrimidin-5-yl)benzoic acid], the IC50 came to 84 µM at cGMP-inhibited cAMP PDE and 5.5 nM in experiment [2]. Further, the “SELECTIVITY RATIO” value in experiment [1] was 15,272.

Consider `CCCc1nn(C)c2c(=O)[nH]c(-c3cc(C(=O)N4CCN(C)CC4)ccc3OCC)nc12` [Example 30, 5-[2-Ethoxy-5-(4-methylpiperazinylcarbonyl)phenyl]-1-methyl-3-n-propyl-1,6-dihydro-7H-pyrazolo[4,3-d]-pyrimidin-7-one], for which the results for the IC50 (at cGMP-inhibited cAMP PDE; in experiment [2]) were 58 µM and 1.4 nM, respectively.

With `CCCc1nn(C)c2c(=O)[nH]c(-c3cc(-n4ccnc4)ccc3OCC)nc12` [Example 31, 5-[2-Ethoxy-5-(1-imidazolyl)phenyl]-1-methyl-3-n-propyl-1,6-dihydro-7H-pyrazolo[4,3-d]-pyrimidin-7-one], the IC50 at cGMP-inhibited cAMP PDE worked out at 56 µM; in experiment [2], 3.4 nM. In experiment [1], the “SELECTIVITY RATIO” value was 16,470.

As for `CCCc1nn(C)c2c(=O)[nH]c(-c3cc(-c4nccn4C)ccc3OCC)nc12` [Example 32, 5-[2-ethoxy-5-(1-methyl-2-imidazolyl)phenyl]-1methyl-3-n-propyl-1,6-dihydro-7H-pyrazolo[4,3-d]pyrimidin-7-one], the results for the IC50 (against cGMP-inhibited cAMP PDE; in experiment [2]) were 38 µM and 1.4 nM, respectively. Also, in experiment [1], the “SELECTIVITY RATIO” value is 27,142.

Turning to `CCCOc1ccc(COCCO)cc1-c1nc2c(CCC)nn(C)c2c(=O)[nH]1` [Example 39, 5-[5-(2-Hydroxyethoxymethyl)-2-n-propoxyphenyl]-1-methyl-3-n-propyl-1,6-dihydro-7H-pyrazolo[4,3-d]-pyrimidin-7-one], the IC50 at cGMP-inhibited cAMP PDE was determined as 54 µM; in experiment [2], 5.3 nM. Also, the “SELECTIVITY RATIO” value in experiment [1] is on record as 10,188.

The record behind these values is patent publication US5272147A, “Pyrazolopyrimidinone antianginal agents” (Pfizer Inc., priority 1991, dated 1993).
